From PubChem BioAssay AID1963844 (Molecular Pharmacology Branch, DTP, NCI, 2024)
pIC50: −log10 of the molar value.

Test system: 422866-222-R5-J1-PDC complex spheroid viability
Assay: Anticancer human tumor 422866-222-R5-J1-PDC patient-derived pancreatic adenocarcinoma cell line growth inhibition [POLQ]
Conditions: for pIC50: curve of first compound; for viability, T/C: stronger effect = lower value
Summary of the method: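 Patient-derived tumour cells were co-cultured with HUVEC and mesenchymal stem cells as multicellular spheroids at 37 °C. They were treated with POLQ inhibitors (novobiocin, ART-558, RP6685) alone or combined with other agents. Top concentrations were at or near clinical Cmax (otherwise 10 microM; SN-38 at 1 microM), decreasing in half-log steps.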

[1] = second compound 0.0316 µM, first compound 0.0316 µM
[2] = second compound 0.0316 µM, first compound 0.1 µM
[3] = second compound 0.0316 µM, first compound 0.316 µM
[4] = second compound 0.0316 µM, first compound 1 µM
[5] = second compound 0.0316 µM, first compound 3.16 µM
[6] = second compound 0.0316 µM, first compound 10 µM
[7] = second compound 0.1 µM, first compound 0.0316 µM
[8] = second compound 0.1 µM, first compound 0.1 µM
[9] = second compound 0.1 µM, first compound 0.316 µM
[10] = second compound 0.1 µM, first compound 1 µM
[11] = second compound 0.1 µM, first compound 3.16 µM
[12] = second compound 0.1 µM, first compound 10 µM
[13] = second compound 0.316 µM, first compound 0.0316 µM
[14] = second compound 0.316 µM, first compound 0.1 µM
[15] = second compound 0.316 µM, first compound 0.316 µM
[16] = second compound 0.316 µM, first compound 1 µM
[17] = second compound 0.316 µM, first compound 3.16 µM
[18] = second compound 0.316 µM, first compound 10 µM
[19] = second compound 1 µM, first compound 0.0316 µM
[20] = second compound 1 µM, first compound 0.1 µM
[21] = second compound 1 µM, first compound 0.316 µM
[22] = second compound 1 µM, first compound 1 µM
[23] = second compound 1 µM, first compound 3.16 µM
[24] = second compound 1 µM, first compound 10 µM
[25] = second compound 3.16 µM, first compound 0.0316 µM
[26] = second compound 3.16 µM, first compound 0.1 µM
[27] = second compound 3.16 µM, first compound 0.316 µM
[28] = second compound 3.16 µM, first compound 1 µM
[29] = second compound 3.16 µM, first compound 3.16 µM
[30] = second compound 3.16 µM, first compound 10 µM
[31] = second compound 10 µM, first compound 0.0316 µM
[32] = second compound 10 µM, first compound 0.1 µM
[33] = second compound 10 µM, first compound 0.316 µM
[34] = second compound 10 µM, first compound 1 µM
[35] = second compound 10 µM, first compound 3.16 µM
[36] = second compound 10 µM, first compound 10 µM
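Also: spheroids exposed to compounds for one week before readout.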
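For viability, T/C in this document: percent of DMSO vehicle wells luminescence so 100% = untreated viability.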

CCc1cc2c(N3CCc4c(cc(Cn5ccnc5)cc4-c4cn(C)nc4C(F)(F)F)C3=O)cc(C)nc2c(OC)n1 + COC1C(OC(N)=O)C(O)C(Oc2ccc3c(O)c(NC(=O)c4ccc(O)c(CC=C(C)C)c4)c(=O)oc3c2C)OC1(C)C
pIC50 (second compound 0.0316 µM): < 5.00 | pIC50 (second compound 0.1 µM): < 5.00 | pIC50 (second compound 0.316 µM): < 5.00 | pIC50 (second compound 1 µM): < 5.00 | pIC50 (second compound 3.16 µM): < 5.00 | pIC50 (second compound 10 µM): < 5.00 | viability, T/C [1]: 96.1% | viability, T/C [2]: 95.7% | viability, T/C [3]: 92.4% | viability, T/C [4]: 129% | viability, T/C [5]: 125% | viability, T/C [6]: 119% | viability, T/C [7]: 100% | viability, T/C [8]: 88.8% | viability, T/C [9]: 94.6% | viability, T/C [10]: 126% | viability, T/C [11]: 110% | viability, T/C [12]: 93.7% | viability, T/C [13]: 93.7% | viability, T/C [14]: 94.5% | viability, T/C [15]: 108% | viability, T/C [16]: 102% | viability, T/C [17]: 102% | viability, T/C [18]: 111% | viability, T/C [19]: 97.7% | viability, T/C [20]: 98% | viability, T/C [21]: 96.5% | viability, T/C [22]: 92.8% | viability, T/C [23]: 121% | viability, T/C [24]: 108% | viability, T/C [25]: 102% | viability, T/C [26]: 101% | viability, T/C [27]: 123% | viability, T/C [28]: 106% | viability, T/C [29]: 123% | viability, T/C [30]: 116% | viability, T/C [31]: 102% | viability, T/C [32]: 85.6% | viability, T/C [33]: 106% | viability, T/C [34]: 95.1% | viability, T/C [35]: 109% | viability, T/C [36]: 102%

CCc1cc2c(N3CCc4c(cc(Cn5ccnc5)cc4-c4cn(C)nc4C(F)(F)F)C3=O)ccnc2c(OC)n1 + COC1C(OC(N)=O)C(O)C(Oc2ccc3c(O)c(NC(=O)c4ccc(O)c(CC=C(C)C)c4)c(=O)oc3c2C)OC1(C)C
pIC50 (second compound 0.0316 µM): < 5.00 | pIC50 (second compound 0.1 µM): < 5.00 | pIC50 (second compound 0.316 µM): < 5.00 | pIC50 (second compound 1 µM): < 5.00 | pIC50 (second compound 3.16 µM): < 5.00 | pIC50 (second compound 10 µM): < 5.00 | viability, T/C [1]: 95.3% | viability, T/C [2]: 92.8% | viability, T/C [3]: 108% | viability, T/C [4]: 119% | viability, T/C [5]: 113% | viability, T/C [6]: 116% | viability, T/C [7]: 92.8% | viability, T/C [8]: 108% | viability, T/C [9]: 116% | viability, T/C [10]: 104% | viability, T/C [11]: 110% | viability, T/C [12]: 111% | viability, T/C [13]: 104% | viability, T/C [14]: 91% | viability, T/C [15]: 92.2% | viability, T/C [16]: 101% | viability, T/C [17]: 112% | viability, T/C [18]: 124% | viability, T/C [19]: 86.6% | viability, T/C [20]: 91.4% | viability, T/C [21]: 102% | viability, T/C [22]: 100% | viability, T/C [23]: 115% | viability, T/C [24]: 124% | viability, T/C [25]: 91.9% | viability, T/C [26]: 105% | viability, T/C [27]: 129% | viability, T/C [28]: 114% | viability, T/C [29]: 105% | viability, T/C [30]: 114% | viability, T/C [31]: 93% | viability, T/C [32]: 98.1% | viability, T/C [33]: 105% | viability, T/C [34]: 109% | viability, T/C [35]: 105% | viability, T/C [36]: 122%

COc1cc2cc(C(=O)CCC(=O)O)sc2cc1OC + COC1C(OC(N)=O)C(O)C(Oc2ccc3c(O)c(NC(=O)c4ccc(O)c(CC=C(C)C)c4)c(=O)oc3c2C)OC1(C)C
pIC50 (second compound 0.0316 µM): < 5.00 | pIC50 (second compound 0.1 µM): < 5.00 | pIC50 (second compound 0.316 µM): < 5.00 | pIC50 (second compound 1 µM): < 5.00 | pIC50 (second compound 3.16 µM): < 5.00 | pIC50 (second compound 10 µM): < 5.00 | viability, T/C [1]: 102% | viability, T/C [2]: 104% | viability, T/C [3]: 87.3% | viability, T/C [4]: 114% | viability, T/C [5]: 94.2% | viability, T/C [6]: 106% | viability, T/C [7]: 114% | viability, T/C [8]: 95.8% | viability, T/C [9]: 93.8% | viability, T/C [10]: 105% | viability, T/C [11]: 88.1% | viability, T/C [12]: 102% | viability, T/C [13]: 98.8% | viability, T/C [14]: 95% | viability, T/C [15]: 110% | viability, T/C [16]: 93.4% | viability, T/C [17]: 93.8% | viability, T/C [18]: 106% | viability, T/C [19]: 104% | viability, T/C [20]: 96.8% | viability, T/C [21]: 94.4% | viability, T/C [22]: 102% | viability, T/C [23]: 92.7% | viability, T/C [24]: 115% | viability, T/C [25]: 99.1% | viability, T/C [26]: 102% | viability, T/C [27]: 107% | viability, T/C [28]: 103% | viability, T/C [29]: 92.5% | viability, T/C [30]: 134% | viability, T/C [31]: 97.2% | viability, T/C [32]: 104% | viability, T/C [33]: 105% | viability, T/C [34]: 99% | viability, T/C [35]: 94.8% | viability, T/C [36]: 122%

COc1ccc([C@@H](O)c2cc(-c3ncnc4cc(N5CCOCC5)ccc34)c(F)cc2Cl)nn1 + COC1C(OC(N)=O)C(O)C(Oc2ccc3c(O)c(NC(=O)c4ccc(O)c(CC=C(C)C)c4)c(=O)oc3c2C)OC1(C)C
pIC50 (second compound 0.0316 µM): 5.58 | pIC50 (second compound 0.1 µM): 5.70 | pIC50 (second compound 0.316 µM): 5.66 | pIC50 (second compound 1 µM): 5.54 | pIC50 (second compound 3.16 µM): 5.63 | pIC50 (second compound 10 µM): 5.71 | viability, T/C [1]: 96.4% | viability, T/C [2]: 96% | viability, T/C [3]: 76.5% | viability, T/C [4]: 67.2% | viability, T/C [5]: 44.6% | viability, T/C [6]: 40.5% | viability, T/C [7]: 101% | viability, T/C [8]: 100% | viability, T/C [9]: 93.3% | viability, T/C [10]: 60% | viability, T/C [11]: 45.5% | viability, T/C [12]: 37.4% | viability, T/C [13]: 88.5% | viability, T/C [14]: 94.9% | viability, T/C [15]: 82.8% | viability, T/C [16]: 61.7% | viability, T/C [17]: 41.2% | viability, T/C [18]: 46.5% | viability, T/C [19]: 109% | viability, T/C [20]: 102% | viability, T/C [21]: 76% | viability, T/C [22]: 67.5% | viability, T/C [23]: 47.1% | viability, T/C [24]: 40% | viability, T/C [25]: 98.8% | viability, T/C [26]: 99.5% | viability, T/C [27]: 77.9% | viability, T/C [28]: 62% | viability, T/C [29]: 48.3% | viability, T/C [30]: 30.4% | viability, T/C [31]: 97.7% | viability, T/C [32]: 99.5% | viability, T/C [33]: 86.7% | viability, T/C [34]: 58.7% | viability, T/C [35]: 45.4% | viability, T/C [36]: 37%
